Data as given in ChEMBL document CHEMBL4507268 (2021).

How the values were obtained:
[1] = target: Mitogen-activated protein kinase 14 (Homo sapiens) (UniProt Q16539); settings: Compound concentration 1.0 uM
[2] = target: T1, Tyrosine-protein kinase Tec (Homo sapiens) (UniProt P42680); settings: Compound concentration 1.0 uM
T1 sequence (whole entry): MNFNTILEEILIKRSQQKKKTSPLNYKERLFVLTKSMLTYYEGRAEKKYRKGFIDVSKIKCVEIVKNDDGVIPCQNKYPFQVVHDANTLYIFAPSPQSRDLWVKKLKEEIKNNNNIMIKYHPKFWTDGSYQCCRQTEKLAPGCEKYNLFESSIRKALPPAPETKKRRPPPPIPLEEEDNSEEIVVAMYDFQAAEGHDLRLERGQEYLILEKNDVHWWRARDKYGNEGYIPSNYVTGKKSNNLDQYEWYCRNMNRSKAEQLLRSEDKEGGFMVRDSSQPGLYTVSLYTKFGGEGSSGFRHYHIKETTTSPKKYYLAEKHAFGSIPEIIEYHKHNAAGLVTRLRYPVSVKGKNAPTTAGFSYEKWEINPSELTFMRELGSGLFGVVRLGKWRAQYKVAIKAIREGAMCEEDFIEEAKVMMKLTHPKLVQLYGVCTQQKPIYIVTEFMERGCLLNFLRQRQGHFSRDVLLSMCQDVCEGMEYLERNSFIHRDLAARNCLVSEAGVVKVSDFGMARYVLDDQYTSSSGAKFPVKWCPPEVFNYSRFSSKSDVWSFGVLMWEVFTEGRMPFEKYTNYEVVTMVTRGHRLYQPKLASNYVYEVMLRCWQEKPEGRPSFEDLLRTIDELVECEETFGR

[3] = target: SRSF protein kinase 1 (Homo sapiens) (UniProt Q96SB4); settings: Compound concentration 1.0 uM
[4] = target: T2, Protein kinase C epsilon type (Homo sapiens) (UniProt Q02156); settings: Compound concentration 1.0 uM
T2 sequence (whole entry): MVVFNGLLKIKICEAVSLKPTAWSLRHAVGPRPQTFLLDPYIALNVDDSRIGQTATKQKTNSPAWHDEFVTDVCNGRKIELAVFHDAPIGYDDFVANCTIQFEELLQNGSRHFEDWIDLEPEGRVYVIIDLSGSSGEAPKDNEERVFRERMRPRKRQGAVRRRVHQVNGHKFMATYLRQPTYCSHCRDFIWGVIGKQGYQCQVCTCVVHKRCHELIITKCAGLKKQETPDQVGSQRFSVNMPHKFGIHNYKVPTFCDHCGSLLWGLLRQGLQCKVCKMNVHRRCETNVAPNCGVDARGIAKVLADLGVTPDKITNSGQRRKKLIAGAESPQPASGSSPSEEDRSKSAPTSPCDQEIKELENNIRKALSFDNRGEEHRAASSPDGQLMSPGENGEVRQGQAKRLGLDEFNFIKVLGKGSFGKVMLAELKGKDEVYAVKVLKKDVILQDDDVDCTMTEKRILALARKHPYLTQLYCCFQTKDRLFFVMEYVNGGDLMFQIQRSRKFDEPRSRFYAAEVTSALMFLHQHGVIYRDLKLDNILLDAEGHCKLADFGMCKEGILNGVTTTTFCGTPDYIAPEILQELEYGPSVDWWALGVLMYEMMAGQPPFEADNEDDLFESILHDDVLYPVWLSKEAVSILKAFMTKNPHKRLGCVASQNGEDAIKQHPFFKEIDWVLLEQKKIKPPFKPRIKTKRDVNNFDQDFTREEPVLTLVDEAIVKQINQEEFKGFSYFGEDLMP

[5] = target: Serine/threonine-protein kinase VRK1 (Homo sapiens) (UniProt Q99986); settings: Compound concentration 1.0 uM
[6] = target: Eukaryotic elongation factor 2 kinase (Homo sapiens) (UniProt O00418); settings: Compound concentration 1.0 uM
[7] = target: T3, Tyrosine-protein kinase receptor TYRO3 (Homo sapiens) (UniProt Q06418); settings: Compound concentration 1.0 uM
T3 sequence (whole entry): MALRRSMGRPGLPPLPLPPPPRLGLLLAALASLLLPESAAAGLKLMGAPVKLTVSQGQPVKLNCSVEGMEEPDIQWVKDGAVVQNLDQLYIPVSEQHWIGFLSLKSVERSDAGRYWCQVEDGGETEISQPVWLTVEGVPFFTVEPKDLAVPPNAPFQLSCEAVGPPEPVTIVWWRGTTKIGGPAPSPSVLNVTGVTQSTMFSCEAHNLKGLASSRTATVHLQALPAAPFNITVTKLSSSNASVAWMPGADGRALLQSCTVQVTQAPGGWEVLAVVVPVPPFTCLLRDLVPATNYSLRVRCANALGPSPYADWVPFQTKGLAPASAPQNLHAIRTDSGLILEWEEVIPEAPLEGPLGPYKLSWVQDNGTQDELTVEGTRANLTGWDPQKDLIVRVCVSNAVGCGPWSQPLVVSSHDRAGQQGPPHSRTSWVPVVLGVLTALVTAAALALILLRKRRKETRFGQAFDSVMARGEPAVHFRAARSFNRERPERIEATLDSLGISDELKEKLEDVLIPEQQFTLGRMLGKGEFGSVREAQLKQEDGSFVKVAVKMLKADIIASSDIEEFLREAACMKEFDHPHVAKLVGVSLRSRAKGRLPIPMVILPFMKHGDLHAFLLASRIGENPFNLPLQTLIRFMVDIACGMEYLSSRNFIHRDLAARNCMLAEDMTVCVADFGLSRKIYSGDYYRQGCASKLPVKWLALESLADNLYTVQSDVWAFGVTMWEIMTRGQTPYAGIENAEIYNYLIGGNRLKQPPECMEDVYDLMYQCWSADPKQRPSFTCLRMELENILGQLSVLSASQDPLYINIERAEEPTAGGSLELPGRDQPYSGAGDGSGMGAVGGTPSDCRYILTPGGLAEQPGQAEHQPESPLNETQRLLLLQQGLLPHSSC

Homo sapiens = organism: Homo sapiens; settings: Compound concentration 1.0 uM
[8] = target: Receptor tyrosine-protein kinase erbB-2 (Homo sapiens) (UniProt P04626); settings: Compound concentration 1.0 uM
[9] = target: Sodium-dependent dopamine transporter (Homo sapiens) (UniProt Q01959); settings: Compound concentration 10.0 uM
[10] = target: Vascular endothelial growth factor receptor 1 (Homo sapiens) (UniProt P17948); settings: Compound concentration 1.0 uM
[11] = target: Non-receptor tyrosine-protein kinase TYK2 (Homo sapiens) (UniProt P29597); settings: Compound concentration 1.0 uM
[12] = target: Death-associated protein kinase 3 (Homo sapiens) (UniProt O43293); settings: Compound concentration 1.0 uM
[13] = target: Serine/threonine-protein kinase MRCK alpha (Homo sapiens) (UniProt Q5VT25); settings: Compound concentration 1.0 uM
[14] = target: Maternal embryonic leucine zipper kinase (Homo sapiens) (UniProt Q14680); settings: Compound concentration 1.0 uM
Sequence of Maternal embryonic leucine zipper kinase (Homo sapiens) (Q14680 whole entry, looked up): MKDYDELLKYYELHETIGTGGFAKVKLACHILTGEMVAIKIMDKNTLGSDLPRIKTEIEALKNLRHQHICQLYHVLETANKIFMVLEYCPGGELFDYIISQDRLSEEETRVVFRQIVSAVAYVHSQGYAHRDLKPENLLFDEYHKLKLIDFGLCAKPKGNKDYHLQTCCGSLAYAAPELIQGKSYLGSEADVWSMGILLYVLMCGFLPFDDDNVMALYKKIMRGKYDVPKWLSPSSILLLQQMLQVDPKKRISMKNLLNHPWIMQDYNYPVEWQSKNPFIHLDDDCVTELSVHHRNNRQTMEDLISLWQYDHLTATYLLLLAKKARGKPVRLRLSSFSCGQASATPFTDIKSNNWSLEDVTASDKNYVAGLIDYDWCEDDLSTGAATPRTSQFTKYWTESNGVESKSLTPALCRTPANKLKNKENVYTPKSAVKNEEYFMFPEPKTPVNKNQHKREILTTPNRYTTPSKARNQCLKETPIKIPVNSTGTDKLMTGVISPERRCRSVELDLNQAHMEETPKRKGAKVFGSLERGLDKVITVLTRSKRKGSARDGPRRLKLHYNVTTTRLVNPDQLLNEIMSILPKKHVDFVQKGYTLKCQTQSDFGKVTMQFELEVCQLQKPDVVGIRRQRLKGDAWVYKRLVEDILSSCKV

Sequence of Mitogen-activated protein kinase 14 (Homo sapiens) (Q16539 whole entry): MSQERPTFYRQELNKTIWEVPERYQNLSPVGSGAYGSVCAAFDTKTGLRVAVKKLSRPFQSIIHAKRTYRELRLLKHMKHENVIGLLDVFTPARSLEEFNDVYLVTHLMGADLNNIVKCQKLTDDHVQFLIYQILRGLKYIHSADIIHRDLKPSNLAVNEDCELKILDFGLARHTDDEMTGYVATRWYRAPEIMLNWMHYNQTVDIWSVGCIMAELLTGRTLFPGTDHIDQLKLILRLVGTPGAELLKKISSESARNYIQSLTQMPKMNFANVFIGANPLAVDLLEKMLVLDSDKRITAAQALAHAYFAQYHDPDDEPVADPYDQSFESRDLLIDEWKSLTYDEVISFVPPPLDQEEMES
Sequence of Receptor tyrosine-protein kinase erbB-2 (Homo sapiens) (P04626 whole entry): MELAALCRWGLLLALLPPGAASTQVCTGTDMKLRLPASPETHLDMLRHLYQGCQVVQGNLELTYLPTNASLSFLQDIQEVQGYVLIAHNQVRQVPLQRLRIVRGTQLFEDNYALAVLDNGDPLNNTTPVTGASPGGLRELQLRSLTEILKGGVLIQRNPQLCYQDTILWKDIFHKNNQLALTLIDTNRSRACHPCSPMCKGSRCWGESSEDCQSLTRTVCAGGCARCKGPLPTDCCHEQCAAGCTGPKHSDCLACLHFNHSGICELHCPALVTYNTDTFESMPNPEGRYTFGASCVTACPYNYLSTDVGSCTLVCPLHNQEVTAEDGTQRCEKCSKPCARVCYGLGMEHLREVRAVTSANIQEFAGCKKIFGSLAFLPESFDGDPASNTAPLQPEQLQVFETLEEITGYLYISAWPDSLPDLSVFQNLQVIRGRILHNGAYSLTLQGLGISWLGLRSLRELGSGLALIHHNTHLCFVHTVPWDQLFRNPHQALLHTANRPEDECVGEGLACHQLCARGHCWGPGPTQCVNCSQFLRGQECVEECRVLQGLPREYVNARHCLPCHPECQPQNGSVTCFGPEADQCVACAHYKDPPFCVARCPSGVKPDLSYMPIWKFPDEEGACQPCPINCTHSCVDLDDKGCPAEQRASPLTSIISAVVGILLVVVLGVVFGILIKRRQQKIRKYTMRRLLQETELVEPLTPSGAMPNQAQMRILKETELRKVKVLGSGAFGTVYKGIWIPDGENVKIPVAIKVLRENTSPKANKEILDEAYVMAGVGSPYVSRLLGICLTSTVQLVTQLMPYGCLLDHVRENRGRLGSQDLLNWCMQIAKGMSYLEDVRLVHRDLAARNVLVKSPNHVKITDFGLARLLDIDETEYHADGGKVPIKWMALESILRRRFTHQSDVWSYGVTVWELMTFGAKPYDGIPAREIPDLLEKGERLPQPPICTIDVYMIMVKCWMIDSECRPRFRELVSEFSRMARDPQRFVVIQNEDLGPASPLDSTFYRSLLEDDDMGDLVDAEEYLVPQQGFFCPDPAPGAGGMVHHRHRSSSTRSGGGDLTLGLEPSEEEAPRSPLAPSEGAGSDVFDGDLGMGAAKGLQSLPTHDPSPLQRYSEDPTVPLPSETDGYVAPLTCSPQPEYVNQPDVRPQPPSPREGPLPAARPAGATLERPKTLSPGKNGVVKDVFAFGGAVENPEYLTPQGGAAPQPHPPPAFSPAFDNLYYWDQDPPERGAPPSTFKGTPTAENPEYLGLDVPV
Sequence of Serine/threonine-protein kinase VRK1 (Homo sapiens) (Q99986 whole entry): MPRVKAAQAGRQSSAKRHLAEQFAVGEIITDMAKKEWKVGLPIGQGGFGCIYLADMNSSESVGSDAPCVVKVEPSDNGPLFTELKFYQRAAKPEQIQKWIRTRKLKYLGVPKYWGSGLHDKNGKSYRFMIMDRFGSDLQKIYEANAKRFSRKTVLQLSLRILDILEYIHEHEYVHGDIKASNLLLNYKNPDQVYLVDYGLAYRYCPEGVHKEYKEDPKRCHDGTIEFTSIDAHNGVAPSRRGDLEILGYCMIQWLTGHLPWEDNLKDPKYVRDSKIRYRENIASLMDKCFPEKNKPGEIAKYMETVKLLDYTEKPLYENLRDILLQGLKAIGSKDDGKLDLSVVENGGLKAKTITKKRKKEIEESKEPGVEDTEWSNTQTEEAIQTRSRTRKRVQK
Sequence of Vascular endothelial growth factor receptor 1 (Homo sapiens) (P17948 whole entry): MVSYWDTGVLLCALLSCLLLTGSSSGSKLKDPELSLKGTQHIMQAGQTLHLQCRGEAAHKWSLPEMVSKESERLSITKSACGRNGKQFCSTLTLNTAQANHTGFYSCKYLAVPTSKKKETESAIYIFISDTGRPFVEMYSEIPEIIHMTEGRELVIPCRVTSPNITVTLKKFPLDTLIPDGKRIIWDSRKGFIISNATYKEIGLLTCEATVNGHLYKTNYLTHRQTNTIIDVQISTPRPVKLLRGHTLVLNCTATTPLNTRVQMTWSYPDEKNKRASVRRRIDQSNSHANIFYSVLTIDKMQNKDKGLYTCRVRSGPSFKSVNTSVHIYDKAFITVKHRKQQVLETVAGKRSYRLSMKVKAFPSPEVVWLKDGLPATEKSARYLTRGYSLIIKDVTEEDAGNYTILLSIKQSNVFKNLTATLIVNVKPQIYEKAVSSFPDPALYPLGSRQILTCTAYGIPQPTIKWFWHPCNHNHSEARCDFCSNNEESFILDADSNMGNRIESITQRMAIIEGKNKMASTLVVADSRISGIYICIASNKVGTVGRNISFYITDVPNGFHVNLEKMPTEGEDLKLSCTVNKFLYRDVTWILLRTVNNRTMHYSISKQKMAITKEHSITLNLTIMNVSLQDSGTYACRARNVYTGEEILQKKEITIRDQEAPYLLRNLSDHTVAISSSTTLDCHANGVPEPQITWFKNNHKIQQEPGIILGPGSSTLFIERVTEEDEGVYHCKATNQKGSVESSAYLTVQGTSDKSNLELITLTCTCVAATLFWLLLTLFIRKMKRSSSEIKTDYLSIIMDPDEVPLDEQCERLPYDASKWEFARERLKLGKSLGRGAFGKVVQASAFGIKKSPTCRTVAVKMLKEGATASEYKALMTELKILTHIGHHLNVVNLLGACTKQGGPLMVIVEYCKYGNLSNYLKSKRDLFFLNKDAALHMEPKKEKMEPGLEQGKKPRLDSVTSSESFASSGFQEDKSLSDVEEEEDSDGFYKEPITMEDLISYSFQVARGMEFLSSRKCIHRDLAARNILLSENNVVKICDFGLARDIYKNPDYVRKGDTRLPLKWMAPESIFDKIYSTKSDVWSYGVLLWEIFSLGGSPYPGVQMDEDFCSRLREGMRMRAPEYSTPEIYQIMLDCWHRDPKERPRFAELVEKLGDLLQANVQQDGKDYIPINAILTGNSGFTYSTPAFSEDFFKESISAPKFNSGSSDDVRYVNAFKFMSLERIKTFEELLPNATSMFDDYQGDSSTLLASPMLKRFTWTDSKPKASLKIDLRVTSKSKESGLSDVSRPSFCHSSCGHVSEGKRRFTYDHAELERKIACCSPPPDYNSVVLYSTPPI
Sequence of Sodium-dependent dopamine transporter (Homo sapiens) (Q01959 whole entry): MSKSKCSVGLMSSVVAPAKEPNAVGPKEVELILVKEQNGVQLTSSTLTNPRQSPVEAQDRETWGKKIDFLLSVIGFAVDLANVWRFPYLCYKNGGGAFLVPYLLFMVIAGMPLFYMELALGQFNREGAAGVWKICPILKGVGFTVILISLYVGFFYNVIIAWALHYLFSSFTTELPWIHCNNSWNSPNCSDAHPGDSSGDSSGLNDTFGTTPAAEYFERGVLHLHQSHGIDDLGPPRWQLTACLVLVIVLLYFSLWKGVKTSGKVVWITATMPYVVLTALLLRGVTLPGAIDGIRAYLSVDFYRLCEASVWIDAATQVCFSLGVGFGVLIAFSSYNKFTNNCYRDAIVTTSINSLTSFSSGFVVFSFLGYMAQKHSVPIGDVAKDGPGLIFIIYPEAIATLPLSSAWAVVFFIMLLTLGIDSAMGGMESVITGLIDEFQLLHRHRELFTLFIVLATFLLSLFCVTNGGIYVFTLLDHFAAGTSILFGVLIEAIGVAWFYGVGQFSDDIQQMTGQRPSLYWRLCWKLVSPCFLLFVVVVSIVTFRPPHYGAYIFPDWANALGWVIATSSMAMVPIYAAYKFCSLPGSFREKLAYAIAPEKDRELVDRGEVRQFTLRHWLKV
Sequence of Death-associated protein kinase 3 (Homo sapiens) (O43293 whole entry, looked up): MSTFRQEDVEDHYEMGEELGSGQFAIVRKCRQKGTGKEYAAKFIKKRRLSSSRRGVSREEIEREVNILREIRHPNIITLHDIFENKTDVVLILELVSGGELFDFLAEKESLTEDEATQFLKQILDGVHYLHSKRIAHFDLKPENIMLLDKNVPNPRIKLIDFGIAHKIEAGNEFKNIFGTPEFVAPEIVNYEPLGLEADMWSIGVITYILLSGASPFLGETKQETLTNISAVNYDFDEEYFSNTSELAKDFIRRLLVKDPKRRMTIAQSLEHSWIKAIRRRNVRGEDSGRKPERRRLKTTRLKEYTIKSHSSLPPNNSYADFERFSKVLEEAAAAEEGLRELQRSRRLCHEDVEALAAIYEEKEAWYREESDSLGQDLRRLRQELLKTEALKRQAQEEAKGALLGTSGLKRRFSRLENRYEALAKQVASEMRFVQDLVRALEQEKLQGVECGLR

CN1CCN(c2cnc3c(C4CCN(C(=O)c5ccc(OC(F)(F)F)cc5N)CC4)ncnc3c2)CC1 [BAY-885]
inactive: % residual kinase activity [1] 113% | % residual kinase activity [2] 112% | % residual kinase activity [3] 114% | % residual kinase activity [4] 104% | % residual kinase activity [5] 100% | % residual kinase activity [6] 113% | % residual kinase activity [7] 100% | % residual kinase activity (Homo sapiens) 112% | % residual kinase activity [8] 96% | inhibition [9] -4.2% | % residual kinase activity [10] 108% | % residual kinase activity [11] 110% | % residual kinase activity [12] 111% | % residual kinase activity [13] 111% | % residual kinase activity [14] 105%
